Data: US20130225611A1, “Compositions and Methods for Reducing Cancer Cell Proliferation and Modulating Importin-Beta Function” (THE REGENTS OF THE UNIVERSITY OF CALIFORNIA, priority 2011, published 2013)
Values after ≈ are worked out from the molar mass of the structure shown.

Assays:
solubility in water = assay type: physicochemical
importin-β = target: T1, importin-β (Homo sapiens, UniProt Q14974); experiment: fluorescent thermal shift assay (Sypro Orange), importin-β; assay type: binding; details: 2 μM importin-β, 50 μM compound
T1 construct: made in house; host or cells: BL21 cells (E. coli)
T1 sequence (Q14974 whole entry): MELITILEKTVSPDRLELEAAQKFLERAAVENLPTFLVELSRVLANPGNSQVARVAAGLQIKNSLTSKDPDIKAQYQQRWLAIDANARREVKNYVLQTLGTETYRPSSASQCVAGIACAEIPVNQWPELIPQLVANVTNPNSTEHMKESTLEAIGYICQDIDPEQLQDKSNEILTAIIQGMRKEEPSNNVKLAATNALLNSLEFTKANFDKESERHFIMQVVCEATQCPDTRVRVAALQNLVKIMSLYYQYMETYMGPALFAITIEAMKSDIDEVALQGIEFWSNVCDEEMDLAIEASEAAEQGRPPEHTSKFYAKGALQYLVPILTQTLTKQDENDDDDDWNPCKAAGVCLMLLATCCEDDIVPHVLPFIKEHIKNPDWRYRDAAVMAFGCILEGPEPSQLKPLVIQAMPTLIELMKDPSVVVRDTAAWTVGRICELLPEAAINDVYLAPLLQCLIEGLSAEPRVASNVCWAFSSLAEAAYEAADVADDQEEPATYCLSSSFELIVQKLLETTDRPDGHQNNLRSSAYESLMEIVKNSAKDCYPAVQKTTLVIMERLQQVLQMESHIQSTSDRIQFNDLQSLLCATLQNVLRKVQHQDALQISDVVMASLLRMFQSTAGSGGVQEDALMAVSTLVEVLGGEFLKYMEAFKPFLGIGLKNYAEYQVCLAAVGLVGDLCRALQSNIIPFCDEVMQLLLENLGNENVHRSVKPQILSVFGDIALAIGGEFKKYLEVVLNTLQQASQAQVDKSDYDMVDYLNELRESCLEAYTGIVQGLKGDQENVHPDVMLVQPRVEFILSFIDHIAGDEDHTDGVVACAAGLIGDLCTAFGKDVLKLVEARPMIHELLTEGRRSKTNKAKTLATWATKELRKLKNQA
Description: (§1) Experiments were performed using Applied Biosystems StepOnePlus™ Real-Time polymerase chain reaction (RT-PCR) System. Protein stocks were diluted in PBS and added 70% v/v to a Microamp® Fast 96-well Reaction Plate and maintained on ice. Compounds (importazole and control compound 3016) were then added at 30% v/v in 3% DMSO. Freshly prepared 100× water based-dilution of Sypro® Orange Protein Gel Stain was then added at 1% v/v to reach a final reaction volume of 20 μl. Samples were mixed by gentle pipetting. After sealing the plates with Microamp™ Optical Adhesive Film, the plate was subjected to a heating cycle composed of a 10 sec prewarming step at 25° C. and a gradient between 25° C. and 95° C. with a 0.3° C. ramp. Data was analyzed using the StepOnePlus™ Software v2.1.

RanGTP = target: T2, RanGTP (Homo sapiens, UniProt P62826, Q69L); experiment: fluorescent thermal shift assay (Sypro Orange), RanGTP (RanQ69L); assay type: binding; details: 2 μM RanQ69L, 50 μM importazole
T2 construct: made in house; host or cells: SG13 cells (E. coli)
Description: as §1

[1] = system: importin-β-mediated nuclear import; experiment: ionomycin-induced NFAT-GFP nuclear import in HEK 293 cells; assay type: cell-based, human
From the text: To investigate whether importazole is cell permeable and active in living human cells, a cell line was generated that stably expresses a GFP-tagged version of the transcription factor NFAT (nuclear factor of activated T cells), which shuttles between the nucleus and the cytoplasm in a calcium-regulated manner and is imported by importin-α/β and exported by CRM1. At steady state NFAT is predominantly cytoplasmic. An increase in cytoplasmic calcium induced by the ionophore ionomycin leads to the accumulation of NFAT in the nucleus (FIG. 4A). NFAT import can be reverted upon ionophore withdrawal, (FIG. 5A) providing an inducible system ideal for testing the effects of importazole on importin-β-mediated nuclear import and CRM1-mediated nuclear export, both of which are dependent upon RanGTP.
Cells were pretreated with 40 μM importazole for 1 hour followed by 30 minutes of ionomycin treatment in the continued presence of importazole. […] Thus, it is possible to use importazole in drug-washout experiments to study the Ran/importin-β pathway in cells.
A GFP-NFAT expression plasmid (pKW520) was generated by inserting a BamH I/Hind III-cleaved NFATC1 cDNA fragment into pEGFP-C1 (Clontech) digested with Bgl II and Hind III. The construct was stably transfected into HEK 293 cells and a single clone expressing moderate levels of NFAT-GFP was selected and maintained in Opti-mem media (Gibco) plus 4% fetal bovine serum, 1% penicillin/streptomycin, and 200 μg/ml G418. HeLa cells were grown and maintained according to standard protocols.
For all import and export experiments, HEK 293 cells stably expressing NFAT-GFP were grown on glass coverslips to approximately 50% confluency prior to drug treatment. In all cases, importazole was used at 40 μM and leptomycin B was used at 10 ng/ml. For controls, DMSO was used at a concentration of 0.4%. Ionomycin was added at 1.25 μM. Importazole and leptomycin B treatments were all for 1 hour. In all experiments cells were fixed with 4% formaldehyde prior to fluorescence microscopy. DNA was visualized with 1 μg/ml Hoechst dye.

microtubule asters = experiment: DMSO-induced aster assembly in Xenopus egg extracts; parameters: species or system Xenopus laevis; details: 5% DMSO
Description: Xenopus laevis egg extracts were prepared as described by Hannak et al. (2006) Nat. Protoc. 1:2305-2314. For in vitro spindle assembly, Xenopus laevis sperm DNA was added to egg extracts supplemented with rhodamine-labeled tubulin. Asters were formed by addition of 5% DMSO. DNA was stained with Hoechst dye. The formation of microtubule-based structures was assessed using epifluorescence microscopy after a 30-minute room temperature incubation. In vitro microtubule polymerization and pelleting assays were performed by incubating 25 μM bovine tubulin, 1 mM GTP, and 5% DMSO in BRB80 buffer (80 mM PIPES, 1 mM MgCl2, 1 mM EGTA, pH 6.8) at 37° C. for 30 minutes. Polymerized microtubules were pelleted through a sucrose cushion, resuspended, and analyzed by SDS PAGE.

solubility (solubility in water): ~100 µM (≈ 31.8 µg/mL) | reduction of melting temperature of importin-β (importin-β): 1.72+/−0.27 °C | IC50 ([1]; Homo sapiens, HEK293, HEK 293 cells stably expressing NFAT-GFP, read-out: IC50 for inhibition of NFAT-GFP import): ~15 µM
SMILES: CC(Nc1nc(N2CCCC2)nc2ccccc12)c1ccccc1 (stereo not shown) [importazole, (1-phenyl-ethyl)-(2-pyrrolidin-1-yl-quinazolin-4-yl)-amine]
effect on melting curve of RanGTP (RanGTP): did not significantly affect the melting curves | nuclear accumulation of NFAT-GFP after ionomycin addition ([1]; HEK 293, 40 μM, 1 hour pretreatment then 30 minutes ionomycin): virtually no import of NFAT-GFP | reversibility of NFAT-GFP import inhibition ([1]; washout, 1 hour recovery before ionomycin): reversible upon importazole washout | formation of microtubule asters induced by DMSO in the extract (microtubule asters): did not impair the formation of microtubule asters
